In patent EP0643964A2 (priority 1993, dated 1995):
Where “and” joins values, the source holds several entries; their conditions need not be identical. Identical values can stand only once. Like-named read-outs stand apart in the source and are kept apart here.

Legend:
[1] = test system: patient with an history of ulcerative colitis; experiment: Intravenous treatment of a patient with ulcerative colitis; assay type: in vivo, human
[2] = test system: P815 H-2^d mastocytoma cells; experiment: In vitro cell growth, P815 seeded petri dishes (Trypan blue count); assay type: cell-based
Protocol: (§1) EL4 h-2^b murine T-Lymphoma (2x10⁶ cells) and P815 H-2^d mastocytoma cells (2x10⁶ cells) (kindly provided by Prof. Gideon Berke at the Weizmann Institute of Sciences, Rehovot, Israel) suspended in 2 ml RPMI-HEPES supplemented with […] and 10% fetal calf serum (FCS) were seeded in every one of 10 petri dishes for each of five groups for the EL4 cells and two groups for the P815 cells. […] Group E dishes were co-cultivated with 0.1 ml RPMI-HEPES alone.
(§2) Petri dishes were incubated for 72 hours at 37°C in 5% CO₂ atmosphere. The cells harvested from the petri dishes were then centrifuged, diluted with 1% Trypan blue and counted on a Neubauer chamber.

[3] = test system: P815 H-^d mastocytoma cells; experiment: Mastocytoma transplanted BALB/c mice, peritoneal cell count; assay type: in vivo; conditions: for Cellular count ± STD / I/C: Percentual increment over control growth: Group A
Protocol: Two groups of BALB/c mice were injected with 15X10⁶ P815 H-^d mastocytoma cells by intraperitoneal route. […] The other group (B) was treated with saline.
On the third day assay and for the next three days, 5 mice per group were sacrificed. The peritoneal cavity was washed with phosphate buffered saline (PBS) and the ascitic fluid aspirated with syringe and centrifuged for 10 minutes at 500 Xg. The supernatant was then discarded and the cells diluted in 1% Trypan blue were counted on a Neubauer chamber. The cell count for each group can be observed in Table 3.

Giardia lamblia = experiment: Patients with malabsorption syndrome (MAS) caused by Giardia lamblia; assay type: in vivo, human
Excerpt: Volunteer # 1: Type II MAS with positive isolation of Giardia lamblia in duodenal washings and confirmation of the disease by histopathology. […] One month later, patient 1 presented symptoms and signs of recurrence of the disease, with positive isolation of parasites in feces.
Volunteer # 2: with diffuse abdominal pain, loss of body weight and steatorrhea.

herpes simplex = experiment: Evolution of recidivant periorificial herpes simplex infection in volunteers; assay type: in vivo, human
Protocol: Patients were divided into 3 groups: one of the groups (n=4) received acyclovir by oral route and topical applications of the same drug. […] Experiments began with the appearance of the next episode of herpes, just in the moment when vesicles appeared.
All these patients were controlled monthly during the following 4 months. During this time, group A patients presented episodes with a pattern similar to that they had before the experiment was performed. […] The remaining two presented an episode of herpes 2.8 and 3.3 months later.

herpes zoster = experiment: Herpes zoster infection in patients; assay type: in vivo, human
Excerpt: PATIENT A: who presented a grade II vesical transitional carcinoma that was endoscopically resected. 60 days after resection they presented their first herpetic episode in chest, of 10 days of evolution. 175 days later, a second episode was presented, beginning with hyper and parastesy in the affected area and sudden appearance of vesicles.
PATIENT B: without any apparent disease. 20 and 12 months before they presented two episodes of herpes zoster in the right submammary area, of high intensity, with exquisite pain that made impossible contact with clothes, each episode lasting 3 weeks. At the present time, the patient presented their third episode, preceded by fever (during 48 hours), with crusted vesicles, some of them impetiginized.
PATIENT C: with a breast cancer, under chemo and hormone therapy. After each chemotherapy schedule received, they developed an herpetic episode in the left leg.

[4] = test system: patients with acute hemorraghic diarrhea; experiment: Intravenous treatment of patients with acute hemorrhagic diarrhea; assay type: in vivo, human
Protocol: Rectoscopies were performed in all patients immediately before treatment, 2 and 7 days later. Two (2) of the patients accepted to be biopsed at the moment of the first and second rectoscopies.

[5] = test system: Foot-and-mouth disease virus (FMDV); assay type: in vivo, Swiss mice
[6] = test system: EL4 h-2^b murine T-Lymphoma; experiment: In vitro cell growth, EL4 seeded petri dishes (Trypan blue count); assay type: cell-based; conditions: for Cells Alive ± STD: 72 hours
Protocol: as §1, §2

[7] = Volunteer # 2, day 7 post-treatment
[8] = herpes simplex episode, ACV oral+topical, lidocaine 5 ml 2% i.v. twice a day 2 days
[9] = Mus musculus, 72 h, read-out: I/C: Percentual increment over control growth

## CCN(CC)CC(=O)Nc1c(C)cccc1C [lidocaine]
[1]; 4 i.v. doses each 12 hours per week, 4 weeks (5 ml, 2% solution), during the treatment
  Diarrhea: diarrhea disappeared
[1]; 5th week
  Colonoscopy: congestive and edematous mucosa; no erosion could be observed
[1]; biopsy, 5th week
  histopathological diagnosis: quiescent ulcerative colitis
[2]; Group A, 0.1 ml 0.005% lidocaine, 72 hours, control 4.66E+06
  Alive Cells ± STD: 3.77E+06 ± 0.11 millions of cells
[2]; Group A, 0.1 ml 0.005% lidocaine, control 2.33E+06
  Dead cells: 1.96E+06
[2]; Mus musculus, P815, 72 h, read-out: I/C: Percentual increment over control growth
  inhibition at 0.005 %: 19.1%
[3]; 0.1 ml 0.5% lidocaine 24 h after transplant, 48 Hs p-t, control 5.30E+07
  Cellular count ± STD: 2.85E+07 ± 0.78 millions of cells
[3]; 48 Hs p-t
  I/C: Percentual increment over control growth: -46.18%
[3]; 72 Hs p-t
  I/C: Percentual increment over control growth: -37.11%
[3]; 72 Hs p-t, control 1.59E+08
  Cellular count ± STD: 1.00E+08 ± 3.38 millions of cells
[3]; 96 Hs p-t
  I/C: Percentual increment over control growth: 27.15%
[3]; first 24 hours of lidocaine treatment, decreasing 10% per day afterwards
  reduction in the growth rate: ~50%
Giardia lamblia; Volunteer # 1, five days later
  D-xylose and Van der Kamer tests: normal values
Giardia lamblia; Volunteer # 1, five days later (type II MAS before)
  Enteric histopathological examination: type I MAS
Giardia lamblia; Volunteer # 1, i.v. twice a day 2 days, five days later
  isolation of parasites in feces: negative results
Giardia lamblia; Volunteer # 1, thirty days later
  All tests performed: normalization of enteric function with negative isolation of parasites
Giardia lamblia; [7]
  D-xylose and Van der Kamer tests: normal
  Symptoms: asymptomatic
Giardia lamblia; Volunteer # 2, day 7 post-treatment (type II MAS before)
  microscopic examination of enteric mucosa: type I MAS
Giardia lamblia; Volunteer # 2, day 28 post-treatment
  Overall status: asymptomatic, with gain of weight, normal tests, negative isolation of parasites and a normalization of the microscopic aspect of the enteric mucosa
Giardia lamblia; Volunteer # 2, i.v. twice a day 2 days (5 ml, 2%), day 7 post-treatment
  isolation of parasites: negative results
Herpes simplex; Group B, by 48 hours after treatment was begun
  Pain: no pain existed
Herpes simplex; Group B, lidocaine i.v. at appearance of vesicles
  Vesicle evolution: Neither rupture of vesicles nor crust formation was found
Herpes simplex; [8]
  Duration of lesions: 4.5 days
  Duration of symptoms: 2 days
Herpes simplex; individual patients, followed monthly for 4 months
  FIRST EPISODE AFTER TREATMENT: 84 days and 94 days
Herpes simplex; patients who received lidocaine (groups B and C), 4 months follow-up
  patients who did not present another episode of the disease: 4 of 6
Herpes simplex; the remaining two lidocaine patients
  time to next episode of herpes: 2.8 months and 3.3 months
Herpes zoster; PATIENT C, breast cancer under chemo and hormone therapy
  Evolution of herpetic lesions: residual hyperesthesia persisted
Herpes zoster; individual patients (A, B)
  time to healing (crusts detached / all vesicles healed): ≤ 7 day post-treatment and 10 day post-treatment
Herpes zoster; individual patients (A, B), i.v. twice a day 2 days
  time to disappearance of pain: ≤ 5 days and 5 days
[4]; 4 patients, 5 ml 2% solution i.v. twice a day for 2 days, after 48 hours of treatment
  Symptomatology: abolishment of symptomatology
[4]; second biopsy (2 patients)
  Microscopic examination of mucosa: Slight chronic inflammatory process with indemnity of epithelium
[4]; second rectoscopy, 2 days after start of treatment
  Rectoscopy: congestive and edematous mucosa, without hemorrhages and erosions
[4]; third rectoscopy, 7 days later
  Rectoscopy: normal mucosa
[5]; 0.1 ml 0.1% i.p., 8am and 8pm day 1 (group E)
  PRESENCE OF PMNs: 80-90%
[5]; 0.1 ml 0.1% i.p., 8am and 8pm on day 1 and day 2 (group F)
  PRESENCE OF PMNs: 10%
[5]; 0.1 ml 0.2% i.p., 8am and 8pm day 1 (group C)
  PRESENCE OF PMNs: 30-40%
[5]; 0.1 ml 0.2% i.p., 8am day 1 only (group B)
  PRESENCE OF PMNs: 60-70%
[5]; 0.1 ml 0.2% i.p., 8am, 8pm day 1 and 8am day 2 (group D)
  PRESENCE OF PMNs: 30%
[5]; 0.1 ml 0.4% i.p., 8am day 1 only (group A)
  PRESENCE OF PMNs: 10%
[5]; 0.1 ml 0.8% lidocaine i.m. twice a day, 24 hours before FMDV infection
  PRESENCE OF PMNs: 10%
[5]; 0.1 ml lidocaine 0.2% i.m. twice a day 2 days (group C)
  PRESENCE OF PMNs: 80-90%
[5]; 0.1 ml lidocaine 0.4% i.m. twice a day 2 days (group B)
  PRESENCE OF PMNs: 60-70%
[5]; 0.1 ml lidocaine 0.8% i.m. twice a day 2 days (group A)
  PRESENCE OF PMNs: 30-50%
[5]; groups A (lidocaine endovenous 24 h after FMDV) and C (simultaneous), 48 hours post-infection
  Microscopic examination of the pancreas: minimal inflammatory damage with absence of necrosis
[5]; groups A and C, 72 hours post-infection
  Microscopic examination of the pancreas: no pancreatic damage could be found
[5]; lidocaine concentration 0.1%, i.m. twice a day 2 days
  PRESENCE OF PMNs: 50-60%
[5]; lidocaine concentration 0.2%, i.m. twice a day 2 days
  PRESENCE OF PMNs: 20-30%
[5]; lidocaine concentration 0.3%, i.m. twice a day 2 days
  PRESENCE OF PMNs: 10-20%
[5]; lidocaine concentration 0.4%, i.m. twice a day 2 days
  PRESENCE OF PMNs: 10-20%
[5]; lidocaine concentration 0.5%, i.m. twice a day 2 days
  PRESENCE OF PMNs: 10-20%
[5]; oral route, 0.1 ml of 2% solution twice a day 2 days
  PRESENCE OF PMNs: 50-100%
[5]; oral route, 0.2 ml of 2% solution twice a day 2 days
  PRESENCE OF PMNs: 30-60%
[5]; oral route, 0.3 ml of 2% solution twice a day 2 days
  PRESENCE OF PMNs: 30-60%
[5]; oral route, 0.4 ml of 2% solution twice a day 2 days
  PRESENCE OF PMNs: 50%
[5]; oral route, 0.5 ml. of 2% solution twice a day 2 days
  PRESENCE OF PMNs: 20-30%
[6]; Group A, 0.1 ml 2% lidocaine in 2 ml, 2 millions seeded, control 5.92E+06
  Cells Alive ± STD: 5.16E+06 ± 0.04 millions of cells
[6]; Group A, 2% lidocaine, control 2.08E+06
  Dead cells: 2.78E+06
[6]; Group B, 0.1 ml 0.5% lidocaine
  Cells Alive ± STD: 5.90E+06 ± 0.03 millions of cells
[6]; Group B, 0.5% lidocaine
  Dead cells: 1.64E+06
[6]; Group C, 0.05% lidocaine
  Dead cells: 1.52E+06
[6]; Group C, 0.1 ml 0.05% lidocaine
  Cells Alive ± STD: 5.46E+06 ± 0.01 millions of cells
[6]; Group D, 0.005% lidocaine
  Dead cells: 1.12E+06
[6]; Group D, 0.1 ml 0.005% lidocaine
  Cells Alive ± STD: 3.48E+06 ± 0.02 millions of cells
[6]; [9]
  inhibition at 0.005 %: 41.2%
  inhibition at 0.05 %: 7.77%
  inhibition at 0.5 %: 0.34%
  inhibition at 2 %: 12.8%
[6]; Mus musculus, EL4, 72 h, read-out: amount of dead cells
  cytotoxicity at 2 %: 35%
[6]; groups B to E (0.5%, 0.05%, 0.005% lidocaine and control), 4320 min
  amount of dead cells: 20-25%
